Experimental data published in US4742045A, “Glycopeptide antibiotics” (SmithKline Beckman Corporation, priority 1986, dated 1988).

Legend:
Streptococcus faecalis = assay: standard microtiter assay, minimum inhibitory concentration; type: cell-based
Source text: (§1) Representative results of standard microtiter assays are reported in Tables 1, 2 and 3 which follow, as the minimum inhibitory concentration of antibiotic (μg/ml).
(§2) In Table 1, test organisms 1-13 were different strains of Staphylococcus aureus, and 14-16 were different strains of Staphylococcus epidermidis. In Table 2, test organisms 1-5 were different strains of S. aureus; 6, 8, 12 and 14 were different strains of S. epidermidis; 7 was a Staphylococcus haemolyticus; 9 and 10 were different strains of Streptococcus faecalis; 11 was a Streptococcus pyogenes; and 13 was a Staphylococcus saprophyticus. In Table 3, test organisms 1-3 were different strains of S. aureus; 4 and 6 were different strains of S. epidermidis; 5 was a S. haemolyticus and 7 and 8 were different strains of Streptococcus faecalis. Except where individual components are indicated, the CWI-785 antibiotic employed was the CWI-785 complex; in some cases, HCl salts of the CWI-785 antibiotic were employed.
(§3) The number of strains tested is shown in parentheses below each organism. The average MIC is reported in μg/ml.
(§4) In Table 5 are shown data from standard microtiter assays carried out in a presence of no serum, 50% human serum (hum.) and 50% mouse serum (mse.). The test organisms were 1: S. aureus; 2,4 and 5: different strains of S. epidermidis; 3: S. haemolyticus; 6: S. saprophyticus; 7 and 8: different strains of S. faecalis.

[1] = system: Staphylococcus epidermidis; assay: as above; type: cell-based
Source text: as §1, §2, §4

[2] = system: Staphylococcus haemolyticus; assay: as above; type: cell-based; settings: for MIC: Table 5 organism 3 S. haemolyticus
Source text: as §1, §2, §4

[3] = system: Staphylococcus saprophyticus; assay: as above; type: cell-based; settings: for MIC: Table 5 organism 6 S. saprophyticus
Source text: as §1, §2, §4

Streptococcus pyogenes = assay: as above; type: cell-based; settings: Table 2 test organism 11, Streptococcus pyogenes
Source text: as §1, §2

Coag-neg. Staphylococci = assay: MIC against an expanded panel; type: cell-based; settings: Table 4, Coag-neg. Staphylococci (24 strains)
Source text: as §3

Group A Strep. = assay: MIC against an expanded panel; type: cell-based; settings: Table 4, Group A Strep. (6 strains)
Source text: as §3

Group B Strep. = assay: MIC against an expanded panel; type: cell-based; settings: Table 4, Group B Strep. (4 strains)
Source text: as §3

JK Diptheroids = assay: MIC against an expanded panel; type: cell-based; settings: Table 4, JK Diptheroids (19 strains)
Source text: as §3

Viridans = assay: MIC against an expanded panel; type: cell-based; settings: Table 4, Viridans (2 strains)
Source text: as §3

S. aureus = assay: mice infected intraperitoneally, dosed 1 hr after infection, ED50; type: in vivo; settings: antibiotic i.v. 1 hr post infection
Description: (§5) The in vivo activity of the CWI-785 complex and its components and hydrolysis products was confirmed by administering selected CWI-785 antibiotics to mice infected with various gram-positive pathogens. In one representative assay, in which mice infected intraperitoneally with 46.8 LD50 's of S. aureus (strain 1, Tables 1 and 2) were dosed once, subcutaneously one hour after infection, the following ED50 's (mg/kg) were observed: CWI-785B: 2.4, CWI-785C: 3.1, CWI-785: 3.8, HPB3: 0.9, vancomycin: 0.7. In a second representative assay carried out as above except that mice were infected with 3.17 LD50 's of S. faecalis (strain 9, Table 2), the following ED50 's were observed: HPB3 hydrochloride: 1.6, HPB4 hydrochloride: 1.6, vancomycin: 2.2, teicoplanin: 1.3.
(§6) In Table 6, below, is shown the ED50 in mg/kg of HPB4 in comparison to vancomycin and teicoplanin. Mice were injected i.p. with the indicated organism and then i.v., 1 hr post infection, with the indicated antibiotic.

S. faecalis = assay: as above; type: in vivo
Description: as §5, §6

S. epidermidis = assay: mice infected i.p., antibiotic i.v. 1 hr post infection, ED50; type: in vivo; settings: S. epidermidis 2479 (>1000 × LD50) i.p., antibiotic i.v. 1 hr post infection
Description: as §6

S. haemolyticus = assay: as above; type: in vivo; settings: S. haemolyticus 651 (8 × LD50) i.p., antibiotic i.v. 1 hr post infection
Description: as §6

STAPH. AUREUS HH 127 = assay: prophylactic activity, dosing preinfection; type: in vivo, mice
[4] = Table 4, Strep. faecalis (12 strains)

## teicoplanin
Streptococcus faecalis; Table 2 test organism 9, Streptococcus faecalis strain
  minimum inhibitory concentration: < 0.1 µg/mL
Streptococcus faecalis; Table 2 test organism 10, Streptococcus faecalis strain
  minimum inhibitory concentration: < 0.1 µg/mL
Streptococcus faecalis; [4]
  MIC50: <= 0.1 μg/ml
  MIC RANGE: <=0.1-0.2 μg/ml
Streptococcus faecalis; Table 4, Strep. faecalis MBC50
  MBC50: 6.3 µg/mL
Streptococcus faecalis; Table 4, Strep. faecalis MBC50 column
  MBC RANGE: 1.6 to 25 µg/mL
Streptococcus faecalis; Table 5 organism 7 S. faecalis, 50% Hum. Serum
  MIC: 6.3 µg/mL
Streptococcus faecalis; Table 5 organism 7 S. faecalis, 50% Mse. Serum
  MIC: 1.6 µg/mL
Streptococcus faecalis; Table 5 organism 7 S. faecalis, No Serum
  MIC: <= 0.1 μg/ml
Streptococcus faecalis; Table 5 organism 8 S. faecalis, 50% Hum. Serum
  MIC: 6.3 µg/mL
Streptococcus faecalis; Table 5 organism 8 S. faecalis, 50% Mse. Serum
  MIC: 3.1 µg/mL
Streptococcus faecalis; Table 5 organism 8 S. faecalis, No Serum
  MIC: <= 0.1 μg/ml
[1]; Table 1 test organism 14, S. epidermidis strain
  minimum inhibitory concentration: 1.6 µg/mL
[1]; Table 1 test organism 15, S. epidermidis strain
  minimum inhibitory concentration: 12.5 µg/mL
[1]; Table 1 test organism 16, S. epidermidis strain
  minimum inhibitory concentration: 6.3 µg/mL
[1]; Table 2 test organism 6, S. epidermidis strain
  minimum inhibitory concentration: 12.5 µg/mL
[1]; Table 2 test organism 8, S. epidermidis strain
  minimum inhibitory concentration: 12.5 µg/mL
[1]; Table 2 test organism 12, S. epidermidis strain
  minimum inhibitory concentration: 12.5 µg/mL
[1]; Table 2 test organism 14, S. epidermidis strain
  minimum inhibitory concentration: 3.1 µg/mL
[1]; Table 5 organism 2 S. epidermidis, 50% Hum. Serum
  MIC: 50.0 µg/mL
[1]; Table 5 organism 2 S. epidermidis, 50% Mse. Serum
  MIC: 50.0 µg/mL
[1]; Table 5 organism 2 S. epidermidis, No Serum
  MIC: 12.5 µg/mL
[1]; Table 5 organism 4 S. epidermidis, 50% Hum. Serum
  MIC: 50.0 µg/mL
[1]; Table 5 organism 4 S. epidermidis, 50% Mse. Serum
  MIC: 25.0 µg/mL
[1]; Table 5 organism 4 S. epidermidis, No Serum
  MIC: 12.5 µg/mL
[1]; Table 5 organism 5 S. epidermidis, 50% Hum. Serum
  MIC: > 100 µg/mL
[1]; Table 5 organism 5 S. epidermidis, 50% Mse. Serum
  MIC: <= 0.1 μg/ml
[1]; Table 5 organism 5 S. epidermidis, No Serum
  MIC: 12.5 µg/mL
[2]; Table 2 test organism 7, Staphylococcus haemolyticus
  minimum inhibitory concentration: 12.5 µg/mL
[2]; 50% Hum. Serum
  MIC: 50.0 µg/mL
[2]; 50% Mse. Serum
  MIC: 50.0 µg/mL
[2]; No Serum
  MIC: 12.5 µg/mL
[3]; Table 2 test organism 13, Staphylococcus saprophyticus
  minimum inhibitory concentration: 1.6 µg/mL
[3]; 50% Hum. Serum
  MIC: 12.5 µg/mL
[3]; 50% Mse. Serum
  MIC: 1.6 µg/mL
[3]; No Serum
  MIC: 1.6 µg/mL
Streptococcus pyogenes
  minimum inhibitory concentration: 0.2 µg/mL
Coag-neg. Staphylococci
  MIC50: 12.5 µg/mL
  MIC RANGE: 0.8 to 25 µg/mL
Group A Strep.
  MIC50: <= 0.025 μg/ml
  MIC RANGE: <0.025 to 0.4 µg/mL
Group B Strep.
  MIC RANGE: 0.1 to 1.6 µg/mL
JK Diptheroids
  MIC50: 1.6 µg/mL
  MIC RANGE: 0.2 to 3.1 µg/mL
Viridans
  MIC RANGE: 0.05 to 0.1 µg/mL
S. aureus; S. aureus 2620 (24 × LD50) i.p.
  ED50: 6.0 mg/kg
S. aureus; S. aureus HH 127 (35 × LD50) i.p.
  ED50: 2.5 mg/kg
S. faecalis; S. faecalis 34358 (9 × LD50) i.p., antibiotic i.v. 1 hr post infection
  ED50: 1.7 mg/kg
S. faecalis; mice infected with 3.17 LD50's of S. faecalis (strain 9, Table 2), dosed once subcutaneously one hour after infection
  ED50: 1.3 mg/kg
S. epidermidis
  ED50: < 1.25 mg/kg
S. haemolyticus
  ED50: > 100 mg/kg
STAPH. AUREUS HH 127; Table 8, vs Staph. aureus HH 127 (I.V.)
  ED50: 0.405 mg/kg
STAPH. AUREUS HH 127; Table 8: 40 mg/kg (I.V.), 6 hr preinfection
  PERCENT SURVIVAL: 100%
